Source: US20240000872A1, “NOVEL BACTERIOPHAGE THAT LYSES ACINETOBACTER GENUS BACTERIA HAVING RESISTANCE TO ANTIBIOTICS” (priority 2020, published 2024)

Tested on: Acinetobacter baumannii strains
Assay: Antibiotic susceptibility test (CLSI disk diffusion test method, read per CLSI 2016)
Type: cell-based
Description: (§1) Strain identification was performed using a kit such as AT 32 GN system (bioMérieux, Marcy l'Etoile, France). […] In Table 2 below, S, I, and R are the results obtained by evaluating susceptibility to the antibacterial agents, in which ‘S’ means susceptible, ‘I’ means intermediate, and ‘R’ means resistant.
as §1, with “as ATB” for “as AT”, “system (bioMédrieux,” for “system (bioMérieux,”, “Table 6” for “Table 2”
as §1, with “as ATB” for “as AT”, “Table 10” for “Table 2”, “susceptible, T” for “susceptible, ‘I’”

NCC[C@H](O)C(=O)N[C@@H]1C[C@H](N)[C@@H](O[C@H]2O[C@H](CN)[C@@H](O)[C@H](O)[C@H]2O)[C@H](O)[C@H]1O[C@H]1O[C@H](CO)[C@@H](O)[C@H](N)[C@H]1O [Amikacin, amikacin]
R: antibiotic susceptibility S/I/R (host strain YMC16/01/R198) | susceptibility category (S/I/R) (host strain YMC16/01/R198) | antibiotic susceptibility S/I/R (host strain YMC16/01/R353) | susceptibility category (S/I/R) (host strain YMC16/01/R353) | antibiotic susceptibility S/I/R (host strain YMC16/01/R397) | susceptibility category (S/I/R) (host strain YMC16/01/R397) | antibiotic susceptibility S/I/R (host strain YMC16/01/R405) | susceptibility category (S/I/R) (host strain YMC16/01/R405) | antibiotic susceptibility S/I/R (host strain YMC16/03/R4461) | susceptibility category (S/I/R) (host strain YMC16/03/R4461) | antibiotic susceptibility S/I/R (host strain YMC16/07/R2512) | susceptibility category (S/I/R) (host strain YMC16/07/R2512) | antibiotic susceptibility S/I/R (host strain YMC16/09/R2471) | susceptibility category (S/I/R) (host strain YMC16/09/R2471) | antibiotic susceptibility S/I/R (host strain YMC16/10/R2537) | susceptibility category (S/I/R) (host strain YMC16/10/R2537) | antibiotic susceptibility S/I/R (host strain YMC16/12/B11422) | susceptibility category (S/I/R) (host strain YMC16/12/B11422) | antibiotic susceptibility S/I/R (host strain YMC16/12/B11449) | susceptibility category (S/I/R) (host strain YMC16/12/B11449) | antibiotic susceptibility S/I/R (host strain YMC16/12/B13325) | susceptibility category (S/I/R) (host strain YMC16/12/B13325) | antibiotic susceptibility S/I/R (host strain YMC16/12/P503) | susceptibility category (S/I/R) (host strain YMC16/12/P503) | antibiotic susceptibility S/I/R (host strain YMC16/12/R4637) | susceptibility category (S/I/R) (host strain YMC16/12/R4637) | antibiotic susceptibility S/I/R (host strain YMC17/01/B8053) | susceptibility category (S/I/R) (host strain YMC17/01/B8053) | antibiotic susceptibility S/I/R (host strain YMC17/01/B10087) | susceptibility category (S/I/R) (host strain YMC17/01/B10087) | antibiotic susceptibility S/I/R (host strain YMC17/01/B13454) | susceptibility category (S/I/R) (host strain YMC17/01/B13454) | antibiotic susceptibility S/I/R (host strain YMC17/01/P518) | susceptibility category (S/I/R) (host strain YMC17/01/P518) | antibiotic susceptibility S/I/R (host strain YMC17/01/R2812) | susceptibility category (S/I/R) (host strain YMC17/01/R2812) | antibiotic susceptibility S/I/R (host strain YMC17/02/B14) | susceptibility category (S/I/R) (host strain YMC17/02/B14) | antibiotic susceptibility S/I/R (host strain YMC17/02/B721) | susceptibility category (S/I/R) (host strain YMC17/02/B721) | antibiotic susceptibility S/I/R (host strain YMC17/02/B4039) | susceptibility category (S/I/R) (host strain YMC17/02/B4039) | antibiotic susceptibility S/I/R (host strain YMC17/02/B4520) | susceptibility category (S/I/R) (host strain YMC17/02/B4520) | antibiotic susceptibility S/I/R (host strain YMC17/02/B8414) | susceptibility category (S/I/R) (host strain YMC17/02/B8414) | antibiotic susceptibility S/I/R (host strain YMC17/02/R541) | susceptibility category (S/I/R) (host strain YMC17/02/R541) | antibiotic susceptibility S/I/R (host strain YMC17/02/R2392) | susceptibility category (S/I/R) (host strain YMC17/02/R2392) | antibiotic susceptibility S/I/R (host strain YMC17/03/B4730) | susceptibility category (S/I/R) (host strain YMC17/03/B4730) | antibiotic susceptibility S/I/R (host strain YMC17/03/B5000) | susceptibility category (S/I/R) (host strain YMC17/03/B5000) | antibiotic susceptibility S/I/R (host strain YMC17/03/P971) | susceptibility category (S/I/R) (host strain YMC17/03/P971) | antibiotic susceptibility S/I/R (host strain YMC17/03/R348) | susceptibility category (S/I/R) (host strain YMC17/03/R348) | antibiotic susceptibility S/I/R (host strain YMC17/03/R585) | susceptibility category (S/I/R) (host strain YMC17/03/R585) | antibiotic susceptibility S/I/R (host strain YMC17/03/R1888) | susceptibility category (S/I/R) (host strain YMC17/03/R1888) | antibiotic susceptibility S/I/R (host strain YMC17/03/R3279) | susceptibility category (S/I/R) (host strain YMC17/03/R3279) | antibiotic susceptibility S/I/R (host strain YMC17/03/R4077) | susceptibility category (S/I/R) (host strain YMC17/03/R4077) | antibiotic susceptibility S/I/R (host strain YMC17/03/R4607) | susceptibility category (S/I/R) (host strain YMC17/03/R4607) | antibiotic susceptibility S/I/R (host strain YMC17/04/R488) | susceptibility category (S/I/R) (host strain YMC17/04/R488) | antibiotic susceptibility S/I/R (host strain YMC17/04/R640) | susceptibility category (S/I/R) (host strain YMC17/04/R640) | antibiotic susceptibility S/I/R (host strain YMC/17/05/R1095) | susceptibility category (S/I/R) (host strain YMC/17/05/R1095)
S: antibiotic susceptibility S/I/R (host strain YMC17/01/B12075) | susceptibility category (S/I/R) (host strain YMC17/01/B12075) | antibiotic susceptibility S/I/R (host strain YMC17/02/B87) | susceptibility category (S/I/R) (host strain YMC17/02/B87) | antibiotic susceptibility S/I/R (host strain YMC17/02/B4864) | susceptibility category (S/I/R) (host strain YMC17/02/B4864) | antibiotic susceptibility S/I/R (host strain YMC17/02/P523) | susceptibility category (S/I/R) (host strain YMC17/02/P523)
